For one data set, the target named is T1, KRAS (G12C)::SOS1 (Homo sapiens, UniProt P01116, C118S/C51S/C80L/G12C).
T1 construct: KRAS (G12C) 1-169, N-terminal 6His-tag for purification, cleaved off; 6His-tag (N, cleaved yes); made in house
Put plainly: KRAS::SOS1 AlphaScreen binding assay, KRAS G12C. To be noted: read-out: KRASG12C IC50. From the text: This assay can be used to examine the potency with which compounds according to the invention binding to (mutated) KRAS inhibit the protein-protein interaction between SOS1 and (mutated) KRAS e.g., KRAS WT, KRAS G12C, KRAS G12D, KRAS G12V, KRAS G13D. […] Low IC50 values in this assay setting are indicative of strong inhibition of protein-protein interaction between SOS1 and KRAS:
These assays measure the inhibitory effect of compounds on KRAS mutant protein-protein interactions using the Alpha Screen technology by Perkin Elmer
The following (mutant) enzyme forms of KRAS and interacting proteins are used in these assays at the given concentrations: • KRAS (G12D) 1-169, N-terminal 6His-tag, C-terminal avi-tag (Xtal BioStructures, Inc.); final assay concentration 10 nM and SOS1 564-1049, N-terminal 229 GST-tag, TEV cleavage site (Viva Biotech Ltd); final assay concentration 5 nM; • KRAS (G12C) 1-169, N-terminal 6His-tag for purification, cleaved off, C-terminal avi-tag, biotinylated, mutations: C51S, C80L, C118S (in house); final assay concentration 7.5 nM and SOS1 564-1049, N-terminal 229 GST-tag, TEV cleavage site (Viva Biotech Ltd); final assay concentration 5 nM; • KRAS (G12V) 1-169, N-terminal 6His-tag for purification, cleaved off, C-terminal avi-tag, biotinylated, TEV cleavage site, mutation: C118S, GDP loaded (in house); final assay concentration 10 nM and SOS1 564-1049, N-terminal 229 GST-tag, TEV cleavage site (Viva Biotech Ltd); final assay concentration 10 nM; • KRAS (G13D) 1-169, N-terminal 6His-tag for purification, cleaved off, C-terminal avi-tag, biotinylated, TEV cleavage site, mutation: C118S, GDP loaded (in house); final assay concentration 10 nM and SOS1 564-1049, N-terminal 229 GST-tag, TEV cleavage site (Viva Biotech Ltd); final assay concentration 10 nM; • KRAS (WT) 1-169, N-terminal 6His-tag for purification, cleaved off, C-terminal avi-tag, biotinylated, TEV cleavage site, mutation: C118S, GDP loaded (in house); final assay concentration 10 nM and SOS1 564-1049, N-terminal 229 GST-tag, TEV cleavage site (Viva Biotech Ltd); final assay concentration 10 nM.
Test compounds dissolved in DMSO are dispensed onto assay plates (Proxiplate 384 PLUS, white, PerkinElmer; 6008289) using an Access Labcyte Workstation with the Labcyte Echo 55×. For the chosen highest assay concentration of 100 μM, 150 nL of compound solution are transferred from a 10 mM DMSO compound stock solution. A series of eleven fivefold dilutions per compound are transferred to the assay plate, compound dilutions are tested in duplicates. DMSO are added as backfill to a total volume of 150 nL.
The assays run on a fully automated robotic system in a darkened room below 100 Lux. To 150 nl of compound dilution 10 μl of a mix including KRAS mutant protein, SOS1 (final assay concentrations see above) and GDP nucleotide (Sigma G7127; final assay concentration 10 μM) in assay buffer (1×PBS, 0.1% BSA, 0.05% Tween 20) are added into columns 1-24.
After 30 minutes incubation time 5 μl of Alpha Screen bead mix in assay buffer are added into columns 1-23. Bead mix consists of AlphaLISA Glutathione Acceptor Beads (PerkinElmer, Cat No AL109) and AlphaScreen Streptavidin Donor Beads (PerkinElmer Cat No 6760002) in assay buffer at a final assay concentration of 10 μg/ml each.
Plates are kept at room temperature in a darkened incubator. After an additional 60 minutes incubation time the signal is measured in a PerkinElmer Envision HTS Multilabel Reader using the AlphaScreen specs from PerkinElmer.
Each plate contains up to 16 wells of a negative control depending on the dilution procedure (platewise or serial) (DMSO instead of test compound; with KRAS mutant::SOS1 GDP mix and bead mix; column 23) and 16wells of a positive control (DMSO instead of test compound; with KRAS mutant::SOS1 GDP mix w/o bead mix; column 24).
As internal control known inhibitors of KRAS mutant::SOS1 interaction can be measured on each compound plate. […]
Background: In Alpha technology, singlet oxygen from a donor bead excites a nearby acceptor bead.

Data set [1] can be described thus: Metabolic (microsomal) stability assay, human liver microsomes (HLM). To be noted: 1 μM, predicted clearance as percent of liver blood flow. The class given is in vitro ADME. The method, then:
The metabolic degradation of the test compound is assayed at 37° C. with pooled liver microsomes (mouse (MLM), rat (RLM) or human (HLM)). The final incubation volume of 48 μL per time point contains TRIS buffer (pH 7.5; 0.1 M), magnesium chloride (6.5 mM), microsomal protein (0.5 mg/mL for mouse/rat, 1 mg/mL for human specimens) and the test compound at a final concentration of 1 μM. Following a short preincubation period at 37° C., the reactions are initiated by addition of 12 μL beta-nicotinamide adenine dinucleotide phosphate, reduced form (NADPH, 10 mM) and terminated by transferring an aliquot into solvent after different time points (0, 5, 15, 30, 60 min). Additionally, the NADPH-independent degradation is monitored in incubations without NADPH, terminated at the last time point by addition of acetonitrile. The quenched incubations are pelleted by centrifugation (4,000 rpm, 15 min). An aliquot of the supernatant is assayed by LC-MS/MS to quantify the concentration of parent compound in the individual samples.
In vitro intrinsic clearance (CLint, in vitro) is calculated from the time course of the disappearance of the test drug during the microsomal incubation. Each plot is fitted to the first-order elimination rate constant as C(t)=C0*exp(−ke*t), where C(t) and C0 are the concentration of unchanged test drug at incubation time t and that at preincubation and ke is the disappearance rate constant of the unchanged drug. Subsequently, CLint, in vitro (μL min^−1·amount protein) values are converted to predicted CLint, in vitro (mL min^−1·kg^−1) from incubation parameters according to the equation CLint, in vitro=CLint, in vitro×(incubation volume (ml)/amount protein (mg))×(amount protein (mg)/g liver tissue)×(liver weight/body wt.). For better across species comparison the predicted clearance is expressed as percent of the liver blood flow [% QH](mL min^−1·kg^−1) in the individual species. In general, high stability (corresponding to low % QH) of the compounds across species is desired.

T1 sequence (P01116 1-169 isoform P01116-2 G12C/C51S/C80L/C118S): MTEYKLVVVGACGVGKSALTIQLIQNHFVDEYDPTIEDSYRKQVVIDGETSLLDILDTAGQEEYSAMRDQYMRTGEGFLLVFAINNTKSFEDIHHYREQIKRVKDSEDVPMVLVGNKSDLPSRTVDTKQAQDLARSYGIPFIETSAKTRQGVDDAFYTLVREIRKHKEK

The term IC50 denotes the midpoint of a concentration-inhibition curve. Consider `COC[C@H](C)Nc1cc(O[C@@H](C)[C@@H]2CCCN2C)nc(-c2onc3c2CCC[C@@]32CCCc3sc(N)c(C#N)c32)n1` [Example I-5], for which the IC50 on KRAS (G12C)::SOS1 turned out to be 5 nM. In data set [1], the “HLM QH [%]” value was below 24%.

Take `CO[C@@H]1C[C@@H]([C@H](C)Oc2cc(O[C@@H]3CNC3(C)C)nc(-c3noc4c3CCC[C@@]43CCCc4sc(N)c(C#N)c43)n2)N(C)C1` [II-30]: the concentration for half-maximal inhibition (IC50) at KRAS (G12C)::SOS1 worked out at 1 nM. Further, the “HLM QH [%]” value in data set [1] is recorded as 37%.

As for `C[C@H](Oc1cc(O[C@@H]2CNC2(C)C)nc(-c2noc3c2CCC[C@@]32CCCc3sc(N)c(C#N)c32)n1)[C@@H]1C[C@@H](F)CN1C` [II-31], the IC50 on KRAS (G12C)::SOS1 is 1 nM. Further, the “HLM QH [%]” value in data set [1] was 37%.

As to `C[C@H](Oc1cc(Sc2ncccn2)nc(-c2onc3c2CCC[C@@]32CCCc3sc(N)c(C#N)c32)n1)[C@@H]1CCCN1C` [Example I-7], the IC50 at KRAS (G12C)::SOS1 was determined as 5 nM. Besides, the “HLM QH [%]” value in data set [1] is 38%.

In the case of `C[C@H](Oc1cc(O[C@@H]2CNC2(C)C)nc(-c2noc3c2CCC[C@@]32CCCc3sc(N)c(C#N)c32)n1)[C@@H]1CCCN1C` [II-9], the half-inhibitory concentration (IC50) at KRAS (G12C)::SOS1 was 2 nM. Besides, the “HLM QH [%]” value in data set [1] is listed as below 24%.

On to `C[C@H](Oc1cc(Oc2cccnc2)nc(-c2onc3c2CCC[C@@]32CCCc3sc(N)c(C#N)c32)n1)[C@@H]1CCCN1C` [Example I-2], for which the IC50 on KRAS (G12C)::SOS1 worked out at 1 nM. Also, the “HLM QH [%]” value in data set [1] is listed as 70%.

Consider `C[C@H](Oc1cc(OCCO)nc(-c2noc3c2CCC[C@@]32CCCc3sc(N)c(C#N)c32)n1)[C@@H]1CCCN1C` [II-6], for which the IC50 on KRAS (G12C)::SOS1 was 1 nM. For the same compound, in data set [1], the “HLM QH [%]” value is given as 40%.

For `C[C@H](Oc1cc(N(C)C)nc(-c2noc3c2CCC[C@@]32CCCc3sc(N)c(C#N)c32)n1)[C@@H]1CCCN1C` [II-10], on KRAS (G12C)::SOS1, the IC50 worked out at 2 nM. Besides, the “HLM QH [%]” value in data set [1] is on record as below 24%.

`C[C@H](Oc1cc(Oc2nccs2)nc(-c2onc3c2CCC[C@@]32CCCc3sc(N)c(C#N)c32)n1)[C@@H]1CCCN1C` [Example I-1]: at KRAS (G12C)::SOS1, the IC50 stood at 1 nM. Moreover, in data set [1], the “HLM QH [%]” value is 44%.

The values above are taken from US20250129095A1, “ANNULATED 2-AMINO-3-CYANO THIOPHENES AND DERIVATIVES FOR THE TREATMENT OF CANCER” (Boehringer Ingelheim Int'l GmbH Corp., priority 2021, published 2025).
